US20140228349A1, “5,7-SUBSTITUTED-IMIDAZO[1,2-C]PYRIMIDINES” (Array BioPharma Inc., priority 2011, published 2014)

Legend:
Assay type in all cases: biochemical
JAK1 = biological target: T1, JAK1 (Homo sapiens, UniProt P23458); experiment: JAK1 Inhibition Assay (Omnia kinase fluorescence peptide substrate); conditions: averaged IC50 ranges; 40 μM (Km app) or 1 mM ATP, 15 nM JAK1
T1 construct: purchased Invitrogen Corporation, Carlsbad, Calif; IVGN PV4775
Procedure, shortened: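 15 nM JAK1, 8 μM Omnia Y12 peptide, 40 μM (Km app) or 1 mM ATP; 25 mM HEPES pH 7.4, 10 mM MgCl2, 2% DMSO. Fluorescence (ex 360/em 485 nm) read every 50 s over 45 min. IC50 by 4-parameter fit of percent of control, top dose 10 μM.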

Human Tyk2 kinase domain = biological target: T2, Human Tyk2 kinase domain (Homo sapiens, UniProt P29597); experiment: Tyk2 Inhibition Assay (Omnia kinase fluorescence peptide substrate); conditions: averaged IC50 ranges; 10 μM (Km app) or 1 mM ATP, 2 nM Tyk2
T2 construct: comprising amino acids 886 to 1187; His10 (10 histidine residues) (C, cleaved yes); made in house
T2 sequence (P29597 886-1187): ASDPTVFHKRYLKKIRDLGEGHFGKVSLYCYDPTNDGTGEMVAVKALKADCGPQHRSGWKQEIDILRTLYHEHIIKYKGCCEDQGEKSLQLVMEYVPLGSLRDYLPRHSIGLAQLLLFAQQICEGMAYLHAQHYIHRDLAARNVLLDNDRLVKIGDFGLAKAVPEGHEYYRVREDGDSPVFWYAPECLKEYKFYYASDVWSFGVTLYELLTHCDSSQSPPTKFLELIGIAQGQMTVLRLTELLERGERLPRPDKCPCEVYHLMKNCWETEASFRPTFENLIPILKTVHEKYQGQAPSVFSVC
Procedure, shortened: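 Phosphorylation of 8 μM Omnia Y12 peptide followed kinetically by Sox fluorescence, ex 360/em 485 nm, every 50 s for 45 min. Enzyme: 2 nM Tyk2 kinase domain (aa 886–1187, His tag removed); ATP at 10 μM (Km app) or 1 mM; buffer HEPES pH 7.4 with MgCl2, Triton X-100, DTT. 10-point curves up to 10 μM, IC50 from 4-parameter logistic fit.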

JAK3 = biological target: T3, JAK3 (Homo sapiens, UniProt P52333); experiment: JAK3 Inhibition Assay (Omnia kinase fluorescence peptide substrate); conditions: averaged IC50 ranges; 10 μM (Km app) or 1 mM ATP, 2.5 nM JAK3
T3 construct: purchased Invitrogen Corporation, Carlsbad, Calif; IVGN PV4080
T3 sequence (P52333 1-1124): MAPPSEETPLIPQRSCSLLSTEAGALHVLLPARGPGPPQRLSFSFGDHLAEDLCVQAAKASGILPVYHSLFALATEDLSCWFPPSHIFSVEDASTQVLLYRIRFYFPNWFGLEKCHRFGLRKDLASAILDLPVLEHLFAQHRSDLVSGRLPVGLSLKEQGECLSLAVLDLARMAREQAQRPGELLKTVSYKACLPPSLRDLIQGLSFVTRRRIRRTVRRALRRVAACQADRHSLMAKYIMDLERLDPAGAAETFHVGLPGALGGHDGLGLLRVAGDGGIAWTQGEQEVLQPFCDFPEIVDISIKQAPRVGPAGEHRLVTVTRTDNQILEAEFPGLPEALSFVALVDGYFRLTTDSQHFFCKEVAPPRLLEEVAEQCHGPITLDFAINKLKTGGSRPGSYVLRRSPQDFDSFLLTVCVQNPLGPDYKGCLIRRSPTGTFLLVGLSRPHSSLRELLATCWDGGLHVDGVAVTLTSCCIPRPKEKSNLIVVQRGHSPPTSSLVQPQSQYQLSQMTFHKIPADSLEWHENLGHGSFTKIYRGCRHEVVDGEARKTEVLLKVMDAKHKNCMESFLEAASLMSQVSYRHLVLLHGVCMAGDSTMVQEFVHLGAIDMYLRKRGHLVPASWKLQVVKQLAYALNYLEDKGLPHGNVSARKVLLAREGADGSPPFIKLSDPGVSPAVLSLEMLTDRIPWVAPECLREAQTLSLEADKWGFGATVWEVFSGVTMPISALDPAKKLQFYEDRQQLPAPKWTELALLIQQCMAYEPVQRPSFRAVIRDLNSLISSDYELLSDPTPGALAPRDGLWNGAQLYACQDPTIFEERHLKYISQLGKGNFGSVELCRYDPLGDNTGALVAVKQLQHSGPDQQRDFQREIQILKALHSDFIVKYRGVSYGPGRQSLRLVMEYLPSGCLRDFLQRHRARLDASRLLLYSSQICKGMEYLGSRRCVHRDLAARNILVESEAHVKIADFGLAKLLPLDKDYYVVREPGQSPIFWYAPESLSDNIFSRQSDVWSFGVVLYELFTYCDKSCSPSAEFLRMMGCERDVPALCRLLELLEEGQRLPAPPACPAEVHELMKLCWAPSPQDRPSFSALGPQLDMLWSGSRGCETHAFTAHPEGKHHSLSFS
Procedure, shortened: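 IC50 is the concentration giving 50 percent of control on a 4-parameter logistic fit of 10-point, 3-fold dilutions from a 10 μM top dose, at 2% final DMSO. Kinetic Sox fluorescence (360/485 nm) was monitored every 50 s for 45 min. Mix: JAK3 2.5 nM, Omnia Y7 peptide 10 μM, ATP 10 μM (Km app) or 1 mM, in HEPES pH 7.4 buffer with MgCl2, Triton X-100 and DTT.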

JAK2 = biological target: T4, JAK2 (Homo sapiens, UniProt O60674); experiment: JAK2 Inhibition Assay (Omnia kinase fluorescence peptide substrate); conditions: averaged IC50 ranges; 25 μM (Km app) or 1 mM ATP, 5 nM JAK2
T4 construct: purchased Invitrogen Corporation, Carlsbad, Calif; IVGN PV4288
T4 sequence (O60674 whole entry): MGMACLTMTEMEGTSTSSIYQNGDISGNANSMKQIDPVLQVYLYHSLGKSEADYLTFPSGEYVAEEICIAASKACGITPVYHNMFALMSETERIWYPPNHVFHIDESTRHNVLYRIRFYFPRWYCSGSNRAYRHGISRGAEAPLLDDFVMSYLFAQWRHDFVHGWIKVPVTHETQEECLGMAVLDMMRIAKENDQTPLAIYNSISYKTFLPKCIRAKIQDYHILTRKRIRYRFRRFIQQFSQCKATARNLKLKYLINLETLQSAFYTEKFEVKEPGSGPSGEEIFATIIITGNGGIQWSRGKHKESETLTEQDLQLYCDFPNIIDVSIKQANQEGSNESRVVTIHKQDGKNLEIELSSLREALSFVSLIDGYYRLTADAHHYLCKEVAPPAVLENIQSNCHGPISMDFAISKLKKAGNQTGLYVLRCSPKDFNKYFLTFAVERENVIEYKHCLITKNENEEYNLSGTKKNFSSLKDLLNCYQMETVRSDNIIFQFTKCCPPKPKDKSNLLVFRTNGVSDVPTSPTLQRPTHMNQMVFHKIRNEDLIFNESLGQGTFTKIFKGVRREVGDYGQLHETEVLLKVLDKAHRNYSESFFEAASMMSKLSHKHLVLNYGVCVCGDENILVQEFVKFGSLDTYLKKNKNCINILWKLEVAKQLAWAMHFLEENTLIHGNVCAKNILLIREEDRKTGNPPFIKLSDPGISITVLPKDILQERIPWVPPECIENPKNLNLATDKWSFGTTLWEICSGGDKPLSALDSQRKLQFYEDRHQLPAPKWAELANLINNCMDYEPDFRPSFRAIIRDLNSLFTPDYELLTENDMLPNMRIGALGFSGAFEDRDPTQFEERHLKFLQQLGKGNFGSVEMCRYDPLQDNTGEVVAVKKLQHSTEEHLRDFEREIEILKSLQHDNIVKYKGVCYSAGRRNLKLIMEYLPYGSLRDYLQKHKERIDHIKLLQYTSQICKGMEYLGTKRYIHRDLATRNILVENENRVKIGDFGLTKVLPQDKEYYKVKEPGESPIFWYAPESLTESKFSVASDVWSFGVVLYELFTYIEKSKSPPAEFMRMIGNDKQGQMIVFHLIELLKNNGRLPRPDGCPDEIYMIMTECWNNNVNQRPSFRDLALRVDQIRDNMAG

T1 sequence (P23458 whole entry): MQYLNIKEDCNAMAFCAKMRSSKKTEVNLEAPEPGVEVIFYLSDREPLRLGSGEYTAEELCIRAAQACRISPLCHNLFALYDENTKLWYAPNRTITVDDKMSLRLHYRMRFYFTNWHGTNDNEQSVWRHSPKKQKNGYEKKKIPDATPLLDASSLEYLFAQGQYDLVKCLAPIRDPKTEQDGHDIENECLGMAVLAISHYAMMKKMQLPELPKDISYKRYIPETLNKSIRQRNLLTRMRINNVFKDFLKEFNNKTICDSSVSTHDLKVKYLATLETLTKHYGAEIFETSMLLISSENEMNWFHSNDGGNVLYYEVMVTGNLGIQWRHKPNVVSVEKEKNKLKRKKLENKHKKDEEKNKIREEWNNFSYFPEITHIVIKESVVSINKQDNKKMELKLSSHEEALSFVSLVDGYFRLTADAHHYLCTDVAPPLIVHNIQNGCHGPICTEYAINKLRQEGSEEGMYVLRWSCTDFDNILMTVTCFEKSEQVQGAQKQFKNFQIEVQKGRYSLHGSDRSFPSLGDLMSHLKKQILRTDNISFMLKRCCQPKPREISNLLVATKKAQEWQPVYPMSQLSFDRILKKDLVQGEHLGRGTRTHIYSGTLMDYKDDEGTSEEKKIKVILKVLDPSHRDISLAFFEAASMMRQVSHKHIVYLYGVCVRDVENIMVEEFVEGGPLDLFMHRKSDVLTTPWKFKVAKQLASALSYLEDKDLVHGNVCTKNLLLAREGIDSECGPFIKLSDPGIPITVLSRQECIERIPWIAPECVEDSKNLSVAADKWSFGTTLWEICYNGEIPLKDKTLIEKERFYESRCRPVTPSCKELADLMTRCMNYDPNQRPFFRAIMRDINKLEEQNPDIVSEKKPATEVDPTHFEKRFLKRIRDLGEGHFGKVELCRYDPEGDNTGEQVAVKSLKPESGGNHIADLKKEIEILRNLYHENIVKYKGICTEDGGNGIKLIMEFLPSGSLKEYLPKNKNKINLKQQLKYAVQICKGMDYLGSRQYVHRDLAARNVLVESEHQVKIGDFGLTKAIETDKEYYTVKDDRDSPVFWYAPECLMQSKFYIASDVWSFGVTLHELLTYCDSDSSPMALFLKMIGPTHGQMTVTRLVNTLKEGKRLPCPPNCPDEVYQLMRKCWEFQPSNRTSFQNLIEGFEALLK

| Structure (SMILES) | IC50 (JAK1) | IC50 (Human Tyk2 kinase domain) | IC50 (JAK3) | IC50 (JAK2) |
| --- | --- | --- | --- | --- |
| CC=C[C@@H](C1CC1)n1cc(-c2nc(-c3cnn(C)c3)cc3nccn23)cn1 [Example 39, (R)-5-(1-(1-cyclopropylbut-2-en-1-yl)-1H-pyrazol-4-yl)-7-(1-methyl-1H-pyrazol-4-yl)imidazo[1,2-c]pyrimidine] | 0.1 to 1 µM | 0.01 to 0.1 µM | 0.1 to 1 µM | 0.1 to 1 µM |
| C[C@@H](O)C[C@H](C1CC1)n1cc(-c2nc(-c3cnn(C)c3)cc3nccn23)cn1 [Example 40, (2R,4R)-4-cyclopropyl-4-(4-(7-(1-methyl-1H-pyrazol-4-yl)imidazo[1,2-c]pyrimidin-5-yl)-1H-pyrazol-1-yl)butan-2-ol] | > 1 µM | 0.1 to 1 µM | > 1 µM | 0.1 to 1 µM |
| C[C@H](O)C[C@@H](C1CC1)n1cc(-c2nc(-c3cnn(C)c3)cc3nccn23)cn1 [Example 41, (2S,4S)-4-cyclopropyl-4-(4-(7-(1-methyl-1H-pyrazol-4-yl)imidazo[1,2-c]pyrimidin-5-yl)-1H-pyrazol-1-yl)butan-2-ol] | > 1 µM | 0.1 to 1 µM | > 1 µM | 0.1 to 1 µM |
| Cn1cc(-c2cc3nccn3c(-c3cnn(C(C/C=C\F)C4CC4)c3)n2)cn1 (stereo not drawn) [Example 44, (Z)-5-(1-(1-cyclopropyl-4-fluorobut-3-en-1-yl)-1H-pyrazol-4-yl)-7-(1-methyl-1H-pyrazol-4-yl)imidazo[1,2-c]pyrimidine] | 0.1 to 1 µM | 0.01 to 0.1 µM | 0.1 to 1 µM | 0.01 to 0.1 µM |
| Cn1cc(-c2cc3nccn3c(-c3cnn(C4(CCF)CN(S(=O)(=O)NC5CC5)C4)c3)n2)cn1 [Example 46, N-cyclopropyl-3-(2-fluoroethyl)-3-(4-(7-(1-methyl-1H-pyrazol-4-yl)imidazo[l,2-c]pyrimidin-5-yl)-1H-pyrazol-1-yl)azetidine-1-sulfonamide] | 0.1 to 1 µM | 0.1 to 1 µM | > 1 µM | 0.1 to 1 µM |
| Cn1cc(-c2cc3nccn3c(-c3cnn([C@H](CC=C(F)F)C4CC4)c3)n2)cn1 [Example 49, (R)-5-(1-(1-cyclopropyl-4,4-difluorobut-3-en-1-yl)-1H-pyrazol-4-yl)-7-(1-methyl-1H-pyrazol-4-yl)imidazo[1,2-c]pyrimidine] | 0.01 to 0.1 µM | < 0.01 µM | 0.01 to 0.1 µM | 0.01 to 0.1 µM |
| Cn1cc(-c2cc3nccn3c(-c3cnn([C@@H](CC=C(F)F)C4CC4)c3)n2)cn1 [Example 50, (S)-5-(1-(1-cyclopropyl-4,4-difluorobut-3-en-1-yl)-1H-pyrazol-4-yl)-7-(1-methyl-1H-pyrazol-4-yl)imidazo[1,2-c]pyrimidine] | 0.01 to 0.1 µM | < 0.01 µM | 0.01 to 0.1 µM | < 0.01 µM |
| Cn1cc(-c2cc3nccn3c(-c3cnn(C4(CCF)CN(S(=O)(=O)C(F)F)C4)c3)n2)cn1 [Example 51] | 0.01 to 0.1 µM | < 0.01 µM | 0.01 to 0.1 µM | 0.01 to 0.1 µM |
| Cn1cc(-c2cc3nccn3c(-c3cnn(C4(CCF)CCC4)c3)n2)cn1 [Example 52, 5-(1-(1-(2-fluoroethyl)cyclobutyl)-1H-pyrazol-4-yl)-7-(1-methyl-1H-pyrazol-4-yl)imidazo[1,2-c]pyrimidine] | 0.1 to 1 µM | 0.01 to 0.1 µM | 0.1 to 1 µM | 0.1 to 1 µM |
| COCCC1(n2cc(-c3nc(-c4cnn(C)c4)cc4nccn34)cn2)CCC1 [Example 53, 5-(1-(1-(2-methoxyethyl)cyclobutyl)-1H-pyrazol-4-yl)-7-(1-methyl-1H-pyrazol-4-yl)imidazo[1,2-c]pyrimidine] | > 1 µM | 0.1 to 1 µM | 0.1 to 1 µM | 0.1 to 1 µM |
| Cn1cc(-c2cc3nccn3c(-c3cnn(C(CC=C(F)F)C4CC4)c3)n2)cn1 (stereo not drawn) [Example 54, 5-(1-(1-cyclopropyl-4,4-difluorobut-3-en-1-yl)-1H-pyrazol-4-yl)-7-(1-methyl-1H-pyrazol-4-yl)imidazo[1,2-c]pyrimidine] | 0.01 to 0.1 µM | < 0.01 µM | 0.01 to 0.1 µM | 0.01 to 0.1 µM |
| Cn1cc(-c2cc3nccn3c(-c3cnn(C4(CCO)CCC4)c3)n2)cn1 [Example 56, 2-(1-(4-(7-(1-methyl-1H-pyrazol-4-yl)imidazo[1,2-c]pyrimidin-5-yl)-1H-pyrazol-1-yl)cyclobutyl)ethanol] | > 1 µM | 0.1 to 1 µM | > 1 µM | > 1 µM |

Next, values leading:

| IC50 (JAK1) | IC50 (Human Tyk2 kinase domain) | IC50 (JAK3) | IC50 (JAK2) | Structure (SMILES) |
| --- | --- | --- | --- | --- |
| 0.1 to 1 µM | < 0.01 µM | 0.1 to 1 µM | 0.01 to 0.1 µM | CC[C@H](CCF)n1cc(-c2nc(-c3cnn(C)c3)cc3nccn23)cn1 [Example 42, (R)-5-(1-(1-fluoropentan-3-yl)-1H-pyrazol-4-yl)-7-(1-methyl-1H-pyrazol-4-yl)imidazo[1,2-c]pyrimidine] |
| 0.1 to 1 µM | 0.01 to 0.1 µM | 0.1 to 1 µM | 0.01 to 0.1 µM | CC[C@@H](CCF)n1cc(-c2nc(-c3cnn(C)c3)cc3nccn23)cn1 [Example 43, (S)-5-(1-(1-fluoropentan-3-yl)-1H-pyrazol-4-yl)-7-(1-methyl-1H-pyrazol-4-yl)imidazo[1,2-c]pyrimidine] |
| > 1 µM | 0.1 to 1 µM | > 1 µM | 0.1 to 1 µM | CC#CCC(C1CC1)n1cc(-c2nc(-c3cnn(C)c3)cc3nccn23)cn1 (stereo not drawn) [Example 45, 5-(1-(1-cyclopropylpent-3-yn-1-yl)-1H-pyrazol-4-yl)-7-(1-methyl-1H-pyrazol-4-yl)imidazo[1,2-c]pyrimidine] |
| 0.1 to 1 µM | 0.01 to 0.1 µM | 0.1 to 1 µM | 0.01 to 0.1 µM | Cn1cc(-c2cc3nccn3c(-c3cnn(C(CCC(F)F)C4CC4)c3)n2)cn1 (stereo not drawn) [Example 47, 5-(1-(1-cyclopropyl-4,4-difluorobutyl)-1H-pyrazol-4-yl)-7-(1-methyl-1H-pyrazol-4-yl)imidazo[1,2-c]pyrimidine] |
| 0.1 to 1 µM | < 0.01 µM | 0.1 to 1 µM | 0.01 to 0.1 µM | C#CCC(C1CC1)n1cc(-c2nc(-c3cnn(C)c3)cc3nccn23)cn1 (stereo not drawn) [Example 55, 5-(1-(1-cyclopropylbut-3-yn-1-yl)-1H-pyrazol-4-yl)-7-(1-methyl-1H-pyrazol-4-yl)imidazo[1,2-c]pyrimidine] |
| 0.1 to 1 µM | 0.01 to 0.1 µM | 0.1 to 1 µM | 0.1 to 1 µM | CCC(CCF)n1cc(-c2nc(-c3cnn(C)c3)cc3nccn23)cn1 (stereo not drawn) [Example 57, 5-(1-(1-fluoropentan-3-yl)-1H-pyrazol-4-yl)-7-(1-methyl-1H-pyrazol-4-yl)imidazo[1,2-c]pyrimidine] |
